{
  "source": "paper PMC3853718",
  "about": "(Journal of Translational Medicine, 2013)",
  "key": {"patients": {"test_system": "patients", "conditions": "higher doses (up to 57 mg/m^2), once-every-21-days dosing schedule; cited from earlier work"}, "[1]": {"test_system": "PHA-stimulated lymphocytes in whole blood", "assay": "Ex vivo phytohemagglutinin lymphocyte stimulation assay (BrdU incorporation)", "method": "Whole blood isolated from subjects was treated with phytohemagglutinin (PHA) to stimulate cell division in lymphocytes. Following a brief 30-minute exposure to bromodeoxyuridine (BrdU), cells were harvested and stained using an FITC-conjugated antibody specific for BrdU, counterstained with propidium iodide/RNase A, and analyzed using a FACSCalibur flow cytometer."}, "[2]": {"test_system": "subjects with advanced malignancies", "conditions": "human, in vivo, iv, 28 days"}},
  "data": [
    {"smiles": "CCc1cnn2c(NCc3ccc[n+]([O-])c3)cc(N3CCCC[C@H]3CCO)nc12", "note": "[dinaciclib]", "values": [
      {"measurement": "DLT", "setting": "patients", "value": "Neutropenia"},
      {"measurement": "plasma concentration at which BrdU incorporation was completely inhibited", "setting": "[1]; 46 subjects, 0.33 to 14 mg/m^2", "value": "> 200", "unit": "ng/mL"},
      {"measurement": "BrdU response rate", "setting": "[1]; RP2D 12 mg/m^2, 7 evaluable subjects, responder = less than 5% BrdU incorporation, 2-sided 95% CI: 59%, 100%", "value": 100, "unit": "%"},
      {"measurement": "Mean percent difference in BrdU uptake (95% CI)", "setting": "[1]; RP2D 12 mg/m^2, Day 1, Predose – 2 hours, 7 patients", "value": "10.72 (4.69, 16.75) percent"},
      {"measurement": "Mean percent difference in BrdU uptake (95% CI)", "setting": "[1]; RP2D 12 mg/m^2, Day 1, Predose – 3 hours, 7 patients", "value": "9.28 (1.44, 17.13) percent"},
      {"measurement": "Mean percent difference in BrdU uptake (95% CI)", "setting": "[1]; RP2D 12 mg/m^2, Day 1, Predose – 4 hours, 7 patients", "value": "6.05 (-4.03, 16.12) percent"},
      {"measurement": "Mean percent difference in BrdU uptake (95% CI)", "setting": "[1]; RP2D 12 mg/m^2, Day 1, Predose – 6 hours, 7 patients", "value": "10.16 (3.89, 16.43) percent"},
      {"measurement": "Mean percent difference in BrdU uptake (95% CI)", "setting": "[1]; RP2D 12 mg/m^2, Day 1, Predose – 8 hours, 6 patients", "value": "8.76 (2.87, 14.65) percent"},
      {"measurement": "Mean percent difference in BrdU uptake (95% CI)", "setting": "[1]; RP2D 12 mg/m^2, Day 15, Predose – 2 hours, 7 patients", "value": "14.82 (6.02, 23.61) percent"},
      {"measurement": "Mean percent difference in BrdU uptake (95% CI)", "setting": "[1]; RP2D 12 mg/m^2, Day 15, Predose – 4 hours, 7 patients", "value": "5.47 (-4.17, 15.12) percent"},
      {"measurement": "Mean percent difference in BrdU uptake (95% CI)", "setting": "[1]; RP2D 12 mg/m^2, Day 15, Predose – 8 hours, 5 patients", "value": "16.48 (5.63, 27.34) percent"},
      {"measurement": "BrdU incorporation", "setting": "[1]; majority of samples, at plasma concentration of 100 ng/mL", "value": "less than 5%"},
      {"measurement": "recommended phase 2 dose (RP2D)", "setting": "[2]", "value": 12, "unit": "mg/m^2"}
    ]}
  ]
}
